Data from patent US20180346518A1, “LYSOBACTIN FOR USE IN THE TREATMENT OF BOVINE MASTITIS” (BAYER ANIMAL HEALTH GMBH, priority 2015, published 2018).
Numbered stars: 1 amine (or outer) side, 2 acyl side, 3 side chain; on linkers, the order of the positions; unused ones are H or OH. Bridge positions count the residues as written; N and C are the ends. Square brackets hold non-standard residues; d marks the D form. Peptide text beside a SMILES is read from it. Phe(3R-OH) = O=C([C@@H](N[*:1])[C@H](O[*:3])c1ccccc1)[*:2]; Asn(3S-OH) = NC(=O)[C@@H](O)[C@H](N)C(=O)O; Leu(3R-OH) = CC(C)[C@@H](O)[C@H](N)C(=O)O; aThr = C[C@H](O)[C@H](N)C(=O)O

Assays:
Staphylococcus aureus = assay: dairy cow udder infection model with S. aureus; type: in vivo, lactating dairy cows
Experimental: Fifteen healthy lactating dairy cows were experimentally infected with the mastitis pathogen Staphylococcus aureus on all four udder quarters. […] Treatments were randomly assigned to 42 udder quarters in total, either 50 mg lysobactin per quarter (in 11 quarters), or 150 mg Lysobactin (in 11 quarters), or Ubrolexin® (in 9 quarters), or saline solution (in 11 quarters). Only udder quarters that were bacteriologically positive for the challenge organism immediately prior to treatment (n=42) were eligible for assessment of microbiological and clinical cure. The diseased quarters were treated with these intramammary formulations two times with an interval of 24 hours in between. Udders were clinically examined and milk samples were taken before treatment and several times after that until three weeks after the second administration. Milk was inspected visually for deviation in its consistency and samples were evaluated for presence of the challenge organism and for somatic cell count to confirm the diagnosis mastitis. Diseased udder quarters were considered microbiologically cured when Staphylococcus aureus found in milk samples shortly before treatment could not be isolated from any milk sample taken within the time period between the third and the twenty-first day after the second treatment. Clinical cure was achieved when the local symptoms of mastitis had completely disappeared, and recovery of somatic cell counts (SCC) as parameter of udder inflammation was attained when all counts remained below 500.000 cells per mL of milk in the period mentioned above.

[1] = test system: Streptococcus uberis ATCC 27958; assay: in vitro kill kinetics in milk; type: cell-based; settings: at 48 h; full-fat milk; 4, 8, 16, 32 and 64 μg/mL
Experimental: (§1) In order to assess the ability of lysobactin to kill bacteria in milk, flasks containing different concentrations of lysobactin in store-bought full-fat milk were inoculated with 1-2×10^6 colony forming units/ml of a representative strain of either Staphylococcus aureus or Streptococcus uberis. The flasks were incubated for 24-48 hours in a shaking water bath at 35+/−2° C., and viable bacterial counts in each flask were determined at several time-points by diluting and plating samples on agar plates. A reduction of the number of viable bacteria in the initial inoculum by at least 99.9% is defined as bactericidal activity.
(§2) The kill kinetics of lysobactin against Staphylococcus aureus ATCC 29740 and Streptococcus uberis ATCC 27958 in milk were determined for concentrations of lysobactin of 4, 8, 16, 32 and 64 μg/mL. Results are depicted in FIG. 1 (CFU: colony forming units). A cidality at 24 h and 48 h, respectively, can be postulated for S. aureus and S. uberis.

[2] = test system: Staphylococcus aureus ATCC 29740; assay: in vitro kill kinetics in milk; type: cell-based; settings: at 24 h; full-fat milk; 4, 8, 16, 32 and 64 μg/mL
Experimental: as §1, §2

S. uberis = assay: resistance development during serial passaging; type: cell-based, Streptococcus uberis; settings: constant sub-MIC exposure, 33 days
Experimental: The appearance of MIC changes during constant exposure of bacteria to sub-MIC concentrations of lysobactin was assessed by serial passaging experiments. On the first day the MICs of S. aureus and S. uberis were assessed by microbroth dilution MIC methodology as described by the Clinical and Laboratory Standards Institute (CLSI). Each day for the following 33 consecutive days, bacteria from the well containing the highest concentrations allowing full growth were collected and used to inoculate new 96-well plates and to assess the MIC during constant exposure to lysobactin. The MIC obtained on each day was plotted over time. Rifampicin, which is known to result in quick changes of the MIC, was used as positive control.

in vivo = assay: in vivo; design: species or system Holstein cows; settings: female, Holstein, bovine, 150 mg
Experimental: The study was designed as a non-pivotal study suitable to investigate the milk pharmacokinetics of the active substance lysobactin after single intracisternal application to lactating dairy cows. The active substance was provided in a paraffine based service formulation suitable for intracisternal application containing 150 mg lysobactin B in 10 g oily suspension. The test item was administered as single intracisternal treatment at a dose rate of 150 mg lysobactin to a single hind quarter of four lactating dairy cows each. The dairy cows on study (Holstein cows) represented the target population in age, lactation number, lactation stage, milk yield and breed. The animals were stalled in a tie-barn and were fed with standard feed for dairy cows consisting of corn and grass silage and milk performance feed. Milking was twice daily at a 12 hour interval using a bucket-type milking device. Frequent milk sampling was performed from the treated and respective control quarters prior to (0 h) and over a period of 168 h after treatment (0.5, 1, 2, 4, 6, 8, 12, 24, 36, 48, 60, 72, 84, 96, 120, 144, and 168 h) by manual stripping of the respective udder quarters. Milk samples at routine milking times were gathered prior to milking. Concentrations of the active substance lysobactin in milk were analyzed by HPLC with detection by tandem mass spectrometry. The limit of quantitation was 0.05 mg/L. Pharmacokinetic evaluation of milk concentration data was based on non-compartmental methods and comprised PK-parameters to adequately describe the absorption, distribution and elimination profile of the active substance in milk.

[3] = 50 mg per quarter, Day 3 after second treatment
[4] = 50 mg per quarter, Day 21 after second treatment
[5] = 150 mg per quarter, Day 3 after second treatment
[6] = 150 mg per quarter, Day 21 after second treatment

**Q.** With `CC[C@H](C)[C@@H]1NC(=O)[C@@H](CCCNC(=N)N)NC(=O)[C@H](CC(C)C)NC(=O)[C@H]([C@H](O)C(C)C)NC(=O)[C@@H](NC(=O)[C@H](CC(C)C)NC(=O)[C@H](N)CC(C)C)[C@@H](c2ccccc2)OC(=O)[C@H](CO)NC(=O)[C@H]([C@H](O)C(N)=O)NC(=O)CNC(=O)[C@H]([C@H](C)O)NC1=O` [lysobactin] (H-[dL]L[Phe(3R-OH)][Leu(3R-OH)]L[dR]I[aThr]G[Asn(3S-OH)]S; ester 3-C) as the molecule, how does the microbiological cure rate (Staphylococcus aureus; 50 mg per quarter, 2 treatments 24 h apart, Day 3 after second treatment) read?
**A.** 73%

**Q.** What about the SCC recovery rate (Staphylococcus aureus; [3]) of the same molecule?
**A.** 36%

**Q.** And the “local clinical cure rate” value (Staphylococcus aureus; [3])?
**A.** 45%

**Q.** What about the SCC recovery rate (Staphylococcus aureus; [4]) of the same molecule?
**A.** 45%

**Q.** And the “local clinical cure rate” value (Staphylococcus aureus; [4])?
**A.** 73%

**Q.** What about the microbiological cure rate (Staphylococcus aureus; [4]) of the same molecule?
**A.** 27%

**Q.** And the SCC recovery rate (Staphylococcus aureus; [5])?
**A.** 36%

**Q.** What about the “local clinical cure rate” value (Staphylococcus aureus; [5]) of the same molecule?
**A.** 37%

**Q.** What about the microbiological cure rate (Staphylococcus aureus; [5]) of the same molecule?
**A.** 73%

**Q.** And the SCC recovery rate (Staphylococcus aureus; [6])?
**A.** 91%

**Q.** And the “local clinical cure rate” value (Staphylococcus aureus; [6])?
**A.** 82%

**Q.** And the microbiological cure rate (Staphylococcus aureus; [6])?
**A.** 45%

**Q.** And the “kill kinetics, bactericidal activity (cidality)” value [1]?
**A.** cidality

**Q.** And the “kill kinetics, bactericidal activity (cidality)” value [2]?
**A.** cidality

**Q.** And the “MIC change during serial passaging” value (S. uberis)?
**A.** remain constant

**Q.** What about the AUC(0-inf) (in vivo) of the same molecule?
**A.** 2320 µg·h/mL

**Q.** And the Cmax (in vivo)?
**A.** 342 µg/mL

**Q.** What about the Tmax (in vivo) of the same molecule?
**A.** 4 h

**Q.** What about the half-life (in vivo) of the same molecule?
**A.** 11.6 h

**Q.** And the AUC(0-t) (in vivo; AUC0-12 h)?
**A.** 1870 µg·h/mL

**Q.** And the AUC(0-t) (in vivo; AUC0-24 h)?
**A.** 2210 µg·h/mL
